Measurements reported in patent US20260315431A1, “NANOMATERIAL ENCAPSULATED BIOFILM INHIBITORS FOR DENTAL CARIES TREATMENT” (THE UAB RESEARCH FOUNDATION, priority 2023, published 2026).
“Also recorded” adds a separate entry of the source. Marks after values point to notes of the source that are not given here.

How the values were obtained:
[1] = Body weight of animals, HA5 / HA6 study; assay type: in vivo, Fischer 344 rats; conditions: for Weight: 100 μM (NaF 250 ppm); for weight loss: 4-week treatment, 100 μM
Description: (§1) We used Fischer 344 rats that were bred and maintained in trexler isolators for this experiment. Male and female rat pups were removed from isolators at 20 days of age and randomly assigned into treatment groups of 5 rats/group in cages with filter tops. Rats were then infected with S. mutans UA159 strain by oral swabbing daily for four consecutive days with a fresh overnight culture of S. mutans UA159. Rats were provided with caries promoting Teklad Diet 305 containing […] (Harlan Laboratories, Inc., Indianapolis, IN) and sterile drinking water ad libitum. Oral swabs were taken 5 days post-infection and plated on Todd Hewitt (TH) agar plates and incubated at 37° C. in an environment of 5% CO2 in the air to confirm colonization. Rats were weighed at weaning and then weekly throughout the experiment. One-week post-infection, the molars of the rats were brushed twice daily for 4 weeks with the test compounds using camel-hair brushes. Four treatment groups used in this study were: 1) HA5 (100 μM); 2) […] (100 μM); 3) NaF (250 ppm); and 4) infected untreated rats. Drinking water was withheld for 60 min following each treatment with the compound. Animals were weighed at weaning and at the termination of the experiment. On day 60, the rats were sacrificed using CO2 followed by cervical dislocation or bilateral thoracotomy. The mandibles were surgically removed and cleaned of excess tissue to assess the level of bacteria present and the extent of caries formation. The right mandible from each rat was placed in a tube containing phosphate buffer (3 mL), placed on ice and sonicated (10 sec) to release bacteria from the molars. Each sample was serially diluted, plated on blood (BAP) and mitis-salivarius (MS) agar plates and incubated in an environment of 5% CO2 in air at 37° C. to quantify the level of total bacteria and S. mutans present in the plaque. The right and left mandibles from each rat were then placed in 95% ethanol for 24 h. The mandibles will be cleaned and stained overnight with murexide solution. After drying, the mandibles were sectioned and scored for caries activity using the Keyes method Caries scores were recorded for the buccal, sulcal and proximal molar surfaces individually so that differences among the surfaces can be distinguished. Statistical significance in the mean caries scores, colony-forming units (CFU)/mandible and body weights between groups of rats were determined by one-way analysis of variance (ANOVA) with the Tukey-Kramer multiple comparison test using the InStat program (GraphPad Prism 10.0.2.). When determining the statistical significance between the two groups, an unpaired t-test was applied. Differences between groups were considered significant at a P-value<0.05.

S. mutans UA159 = assay: Gnotobiotic rat model of dental caries (HA5 / HA6 study, Example 2); assay type: in vivo, Fischer 344 rats infected with S. mutans UA159; parameters: key to Buccal Mean Caries Scores (±SEM) E / Buccal Mean Caries Scores (±SEM) Ds / Buccal Mean Caries Scores (±SEM) Dm / Buccal Mean Caries Scores (±SEM) Dx / Sulcal Mean Caries Scores (± SEM) E / Sulcal Mean Caries Scores (± SEM) Ds / Sulcal Mean Caries Scores (± SEM) Dm / Sulcal Mean Caries Scores (± SEM) Dx / Proximal Mean Caries Scores (± SEM) E / Proximal Mean Caries Scores (± SEM) Ds: Keyes method caries scores, mean ± SEM; conditions: for effect on bacterial colonization / reduction in caries scores: 4-week treatment, 100 μM; for CFU/mL BAP: Blood agar plate; for CFU/mL BAP / CFU/mL MS / Buccal Mean Caries Scores (±SEM) Dx / Sulcal Mean Caries Scores (± SEM) Dx / Buccal Mean Caries Scores (±SEM) Dm / Sulcal Mean Caries Scores (± SEM) Dm / Buccal Mean Caries Scores (±SEM) Ds / Proximal Mean Caries Scores (± SEM) Ds / Sulcal Mean Caries Scores (± SEM) Ds / Buccal Mean Caries Scores (±SEM) E / Proximal Mean Caries Scores (± SEM) E / Sulcal Mean Caries Scores (± SEM) E: 100 μM (NaF 250 ppm); for CFU/mL MS: Mitis-Salivarius agar; for Buccal Mean Caries Scores (±SEM) Dx / Sulcal Mean Caries Scores (± SEM) Dx: dentinal extensive; for Buccal Mean Caries Scores (±SEM) Dx / Sulcal Mean Caries Scores (± SEM) Dx / Buccal Mean Caries Scores (±SEM) Dm / Sulcal Mean Caries Scores (± SEM) Dm / Buccal Mean Caries Scores (±SEM) Ds / Proximal Mean Caries Scores (± SEM) Ds / Sulcal Mean Caries Scores (± SEM) Ds / Buccal Mean Caries Scores (±SEM) E / Proximal Mean Caries Scores (± SEM) E / Sulcal Mean Caries Scores (± SEM) E: twice daily, 4 weeks, n = 5; for Buccal Mean Caries Scores (±SEM) Dm / Sulcal Mean Caries Scores (± SEM) Dm: dentinal moderate; for Buccal Mean Caries Scores (±SEM) Ds / Proximal Mean Caries Scores (± SEM) Ds / Sulcal Mean Caries Scores (± SEM) Ds: dentinal slight; for Buccal Mean Caries Scores (±SEM) E / Proximal Mean Caries Scores (± SEM) E / Sulcal Mean Caries Scores (± SEM) E: enamel
Protocol: To understand how these compounds affect the residential bacterial community, we conducted an in vivo evaluation of both HA5 and HA6 and compared to the untreated and NaF-treated rats using a well-established gnotobiotic rat model of dental caries^[50-54]. Treatment groups used in this study were inhibitor HA5 (100 μM), inhibitor HA6 (100 μM), and vehicle. A UA159 infection only group served as a negative control and a NaF (250 ppm) served as a positive control.
All rats from the experimental groups and from the control groups were colonized with S. mutans UA159. […] The effect of the treatment on dentinal moderate (Dm) and dentinal extensive (Dx) scores in the proximal area were not recorded as there were no observable caries lesions in both control and the treated groups. The observed reductions in caries scores by HA5 or HA6 were slightly lower than the positive control NaF treatment. However, it should be noted that the concentration of NaF (250 ppm=5.95 mM) is about 59-fold higher than the inhibitor treatment dose of 100 μM.
as §1

rat oral microbiome = assay: Rat oral microbiome (16S rRNA gene sequencing); assay type: in vivo, Fischer 344 rats; conditions: for overall effect on rat oral microbiome / oral microbiome composition, phylum level: 2-week and 4-week treatment; for oral microbiome composition, phylum level / oral microbiome composition, family level within Firmicutes: 100 μM; for oral microbiome composition, family level within Firmicutes: 4-week treatment; for beta diversity (Bray-Curtis, PERMANOVA): P-value>0.05 vs native community
Protocol: During this study, rat oral microbiome samples were collected from individual rats (n=5) at the following time points: before the experiment (Native), after inoculation of S. mutans and the start of a caries-promoting diet (Sm+CPD), after two weeks of treatment with the compound (2-week), and at the end of the study (END). The microbiota between the groups at different time points was analyzed for oral bacterial composition and abundance. Oral swabs collected before and after interventions with these compounds were analyzed using the 16s rRNA gene sequencing method. Both ‘within’ (alpha diversity) and ‘between’ (beta diversity) sample diversities were calculated over time for each treatment group using MicrobiomeAnalyst 2.0^[55].
as §1
In addition to recording buccal, sulcal and proximal molar surface caries scores and colony-forming units (CFU)/mandible and body weights between groups of rats as described above, plaque samples from rats treated or untreated were collected and DNA was extracted from each sample and used for PCR amplification of ~430 bp amplicons of 16S ribosomal DNA hypervariable regions V3 and V4, Illumina adaptors, and molecular barcodes as described^[66]. […]

SMILES | Weight [1] [g] | weight loss [1] | effect on bacterial colonization (S. mutans UA159) | reduction in caries scores (S. mutans UA159) | CFU/mL BAP (S. mutans UA159) | CFU/mL MS (S. mutans UA159) | Buccal Mean Caries Scores (±SEM) Dx (S. mutans UA159) | Sulcal Mean Caries Scores (± SEM) Dx (S. mutans UA159) | Buccal Mean Caries Scores (±SEM) Dm (S. mutans UA159) | Sulcal Mean Caries Scores (± SEM) Dm (S. mutans UA159) | Buccal Mean Caries Scores (±SEM) Ds (S. mutans UA159) | Proximal Mean Caries Scores (± SEM) Ds (S. mutans UA159) | Sulcal Mean Caries Scores (± SEM) Ds (S. mutans UA159) | Buccal Mean Caries Scores (±SEM) E (S. mutans UA159) | Proximal Mean Caries Scores (± SEM) E (S. mutans UA159) | Sulcal Mean Caries Scores (± SEM) E (S. mutans UA159) | overall effect on rat oral microbiome (rat oral microbiome) | oral microbiome composition, phylum level (rat oral microbiome) | oral microbiome composition, family level within Firmicutes (rat oral microbiome) | beta diversity (Bray-Curtis, PERMANOVA) (rat oral microbiome) | also measured
O=C1/C(=C/c2cc(O)c(O)cc2O)Oc2ccccc21 [HA5, 2-[(2′,4′,5′-Trihydroxyphenyl)methylidene]-2,3-dihydro-1-benzofuran-3-one] | 156 ± 16 | did not experience significant weight loss | did not affect bacterial colonization significantly | significant reductions in buccal caries scores; also recorded: can significantly reduce the caries scores in vivo | 3.9 ± 1.4 CFU/mL (×10^5) | 2.2 ± 0.8 CFU/mL (×10^5) | 2.2 ± 0.7 | 1.0 ± 0.3 | 3.6 ± 0.4 | 4.6 ± 0.2 | 6.6 ± 0.5 | 0.0 ± 0.0 | 11.2 ± 0.6 | 7.8 ± 0.4 | 1.0 ± 0.3 | 16.4 ± 2.2 | without affecting the rat oral microbiome; also recorded: without perturbing the overall rat oral microbiome significantly; also recorded: do not perturb oral microbiome significantly | did not perturb the overall rat oral microbiome at phylum levels significantly | did not perturb the overall rat oral microbiome significantly within this phylum | without any significant deviations | 
O=C1/C(=C/c2cc(O)c(O)c(O)c2)Oc2ccccc21 [HA6, 2-[(3′,4′,5′-Trihydroxyphenyl)methylidene]-2,3-dihydro-1-benzofuran-3-one] | 165 ± 13 | did not experience significant weight loss | did not affect bacterial colonization significantly | significant reductions in buccal caries scores; also recorded: can significantly reduce the caries scores in vivo | 1.9 ± 0.5 CFU/mL (×10^5) | 1.3 ± 0.4 CFU/mL (×10^5) | 1.2 ± 0.5 | 1.6 ± 0.4 | 4.0 ± 0.7 | 6.4 ± 0.4 | 6.8 ± 0.5 | 0.0 ± 0.0 | 11.2 ± 0.7 | 8.2 ± 0.7 | 1.2 ± 0.8 | 14.6 ± 0.9 | without affecting the rat oral microbiome; also recorded: without perturbing the overall rat oral microbiome significantly; also recorded: do not perturb oral microbiome significantly | did not perturb the overall rat oral microbiome at phylum levels significantly | did not perturb the overall rat oral microbiome significantly within this phylum | without any significant deviations | 
[F-].[Na+] [NaF, reference compound] | 145 ± 12 |  |  |  | 2.8 ± 0.7 CFU/mL (×10^5) | 1.6 ± 0.6 CFU/mL (×10^5) | 0.4 ± 0.2 | 1.6 ± 0.5 | 1.6 ± 0.5 | 5.4 ± 0.4 | 3.2 ± 0.9 | 0.0 ± 0.0 | 10.4 ± 0.5 | 6.2 ± 0.9 | 0.0 ± 0.0 | 15.2 ± 0.7 |  |  |  |  | oral bacterial community after Sm+CPD (beta diversity) (rat oral microbiome; NaF-treated group, PERMANOVA, P-value>0.001 (so in the source)): the community was shifted; abundance of the Streptococcaceae family (rat oral microbiome; second week, not sustained till the end of the study): increase in the abundance of the Streptococcaceae family
